# According to US12509734B2, “Systems and methods to assess microbiomes and treatments thereof” (priority 2013, dated 2025):
# Tested on: vaginal microbiota (PB-primer target groups)
# Experiment: PB-qPCR microbial profiles of vaginal swabs of recurrent BV patients (Example 2)
# Format: in vivo, human
# Conditions: P4
# Experimental: Sample processing, DNA extraction, and qPCR. Microbial gDNA was purified from swabs in 1-2 ml saline or lysis solution by a high SDS/alkaline lysis—phenol extraction protocol as described previously in Lambert and resuspended in 200 μL TE (10 mM Tris, pH 8, 1 mM EDTA). The lysed bacterial gDNA is stable for over one month at room temperature in lysis solution buffer (data not shown) and this buffer prevents changes in titer due to possible stability issues with different strains of bacteria in saline. An aliquot of purified DNA was assayed by qPCR with 18 universal and phylogenetic branch-inclusive (PB) primers and PCR conditions as described previously in Lambert. Additional primers, targeting the Enterococcus genus and its cytolysin gene CyILL, are provided in SEQ ID NOs: 92 and 95 (Enterococcus), and 93 and 96 (cytolysin gene). Each PB-primer targets a branch of the phylogenetic tree, from whole phyla to family or genus, and is far more inclusive than species-specific primers. Relative LB composition of the vaginal microbiome was determined by dividing the Lactobacillaceae titer by the sum of all PB-primers and by using the disclosed LB-blocker approach. Briefly, the LB-blocker approach uses the difference between the quantitative cycles (Cq) of two parallel qPCR reactions with universal primers targeting the 16S rRNA gene, when one of the reactions is in the presence of LB spp.-specific blocking oligomers (LB-blockers) that have been chemically modified to prevent extension and that partially overlap the universal primer binding site, effectively rendering the LB DNA “invisible” to the universal PCR, even when LB gDNA is present at great excess compared to non-LB gDNA, as is common in healthy and PT samples. PB-primers amplicons were selectively sequenced to confirm they were correctly targeted and to identify the dominant species. These were “cleaned” enzymatically as described in Lambert, and Sanger sequenced at Functional Biosciences (Madison, WI). Sequences were uploaded to Ribosomal Database Project II using its Pipeline function; species were identified based on phylogenetic trees constructed in Molecular Evolutionary Genetics Analysis (MEGA5) software.
# Calculations. Cq values from qPCR reactions were converted to molecules per reaction by comparing sample Cq values to a standard curve from the same run of Cq values derived from dilutions of an amplicon of known target of known concentration. Molecules per reaction were converted to cells per swab, assuming an average of 5 ribosomal genes per cell and proportioned to the ratio of the volume of the sample used in the DNA prep and the amount of sample used in the qPCR reaction. Delta Cq (ΔCq) values of LB-blocked reaction pairs were calculated as Cq (blocked sample)−Cq (unblocked sample). Differences between patient groups were compared using the t test in (GraphPad software).
smiles,measurement,value
CCS(=O)(=O)CCn1c([N+](=O)[O-])cnc1C [tinidazole],Relative level of the 7 non-LB targets detected after treatment,under 0.1%
same,Response to treatment (microbial profile),responded well
